Data as given in ChEMBL document CHEMBL2069296, “A novel series of G-quadruplex ligands with selectivity for HIF-expressing osteosarcoma and renal cancer cell lines” (Bioorg Med Chem Lett, 2012).
The source made the active and inactive calls. The calls are words filed in the database; no cut-off is given here.

Columns and labels:
WI-38 = assay: Cytotoxicity against human WI38 after 96 hrs by SRB assay; format: cell-based; conditions: WI-38, 96 h
Nucleic Acid [1] = assay: Binding affinity to HIF2alpha DNA by surface plasmon resonance assay; format: nucleic-acid assay
MCF7 = assay: Antiproliferative activity against human MCF7 cells after 96 hrs by SRB assay; format: functional, cell-based; conditions: MCF7, 96 h
MIA PaCa-2 = assay: Antiproliferative activity against human MIAPaCa2 cells after 96 hrs by SRB assay; format: functional, cell-based; conditions: MIA PaCa-2, 96 h
HOS-TE85 = assay: Antiproliferative activity against human MNNG-HOS cells after 96 hrs by SRB assay; format: functional, cell-based; conditions: HOS-TE85, 96 h
PC-3 = assay: Antiproliferative activity against human PC3 cells after 96 hrs by SRB assay; format: functional, cell-based; conditions: PC-3, 96 h
MG-63 = assay: Antiproliferative activity against human MG63 cells after 96 hrs by SRB assay; format: functional, cell-based; conditions: MG-63, 96 h
HOS = assay: Antiproliferative activity against human HOS cells after 96 hrs by SRB assay; format: functional, cell-based
Nucleic Acid [2] = assay: Binding affinity to HIF1alpha DNA by surface plasmon resonance assay; format: nucleic-acid assay
HPAC = assay: Antiproliferative activity against human HPAC cells after 96 hrs by SRB assay; format: functional, cell-based
[3] = Antiproliferative activity against human TC71 cells after 96 hrs by SRB assay; format: functional, cell-based; conditions: TC-71, 96 h
SAOS-2 = assay: Antiproliferative activity against human Saos2 cells after 96 hrs by SRB assay; format: functional, cell-based; conditions: SAOS-2, 96 h
A549 = assay: Antiproliferative activity against human A549 cells after 96 hrs by SRB assay; format: functional, cell-based; conditions: A549, 96 h
A498 = assay: Antiproliferative activity against human A498 cells after 96 hrs by SRB assay; format: functional, cell-based; conditions: A498, 96 h
[4] = Antiproliferative activity against human TC32 cells after 96 hrs by SRB assay; format: functional, cell-based; conditions: TC-32, 96 h
[5] = Antiproliferative activity against human RCC4/VHL cells after 96 hrs by SRB assay; format: functional, cell-based
[6] = Antiproliferative activity against human RCC4 cells after 96 hrs by SRB assay; format: functional, cell-based; conditions: RCC4, 96 h
PANC-1 = assay: Antiproliferative activity against human PANC1 cells after 96 hrs by SRB assay; format: functional, cell-based; conditions: PANC-1, 96 h
OST = assay: Antiproliferative activity against human OST cells after 96 hrs by SRB assay; format: functional, cell-based
Nucleic Acid [7] = assay: Binding affinity to 5'-GGGGCGGGCACGGGGCGGG-3' DNA by surface plasmon resonance; format: nucleic-acid assay
[8] = Antiproliferative activity against human TC135 cells after 96 hrs by SRB assay; format: functional, cell-based; conditions: TC135, 96 h
U2OS = assay: Antiproliferative activity against human U2OS cells after 96 hrs by SRB assay; format: functional, cell-based
[9] = Antiproliferative activity against human 786-O cells after 96 hrs by SRB assay; format: functional, cell-based; conditions: 786-0, 96 h

**Q.** Which IC50 (WI-38) does the source give for `CCN(CC)CC(=O)Nc1ccc(-n2cc(-c3ccc4ccc(-c5cn(-c6ccc(NC(=O)CN(CC)CC)cc6)nn5)cc4c3)nn2)cc1` here?
**A.** 9 µM

**Q.** And the K (Nucleic Acid [1])?
**A.** 0.15 ×10⁷ /M

**Q.** And the IC50 (MCF7)?
**A.** 100 µM

**Q.** And the IC50 (MIA PaCa-2)?
**A.** > 100 µM

**Q.** What about the IC50 (HOS-TE85) of the same molecule?
**A.** 25 µM

**Q.** What about the IC50 (PC-3) of the same molecule?
**A.** > 100 µM

**Q.** And the IC50 (MG-63)?
**A.** 81 µM

**Q.** What about the IC50 (HOS) of the same molecule?
**A.** 75 µM

**Q.** And the K (Nucleic Acid [2])?
**A.** 1.25 ×10⁷ /M

**Q.** And the IC50 (HPAC)?
**A.** 52 µM

**Q.** What about the IC50 [3] of the same molecule?
**A.** > 100 µM

**Q.** What about the IC50 (SAOS-2) of the same molecule?
**A.** 95 µM

**Q.** What about the IC50 (A549) of the same molecule?
**A.** > 100 µM

**Q.** What about the IC50 (A498) of the same molecule?
**A.** 8 µM

**Q.** And the IC50 [4]?
**A.** 29 µM

**Q.** And the IC50 [5]?
**A.** 26 µM

**Q.** And the IC50 [6]?
**A.** 22 µM

**Q.** And the IC50 (PANC-1)?
**A.** > 100 µM

**Q.** And the IC50 (OST)?
**A.** 37 µM

**Q.** What about the K (Nucleic Acid [7]) of the same molecule?
**A.** inactive

**Q.** And the IC50 [8]?
**A.** 23 µM

**Q.** And the IC50 (U2OS)?
**A.** 22 µM

**Q.** What about the IC50 [9] of the same molecule?
**A.** 23 µM

**Q.** Which IC50 (WI-38) does the source give for `O=C(CN1CCCC1)Nc1cccc(-n2cc(-c3ccc4ccc(-c5cn(-c6cccc(NC(=O)CN7CCCC7)c6)nn5)cc4c3)nn2)c1` here?
**A.** 17 µM

**Q.** What about the IC50 (MCF7) of the same molecule?
**A.** > 100 µM

**Q.** And the IC50 (MIA PaCa-2)?
**A.** > 100 µM

**Q.** What about the IC50 (HOS-TE85) of the same molecule?
**A.** 9 µM

**Q.** And the IC50 (PC-3)?
**A.** 25 µM

**Q.** And the IC50 (MG-63)?
**A.** 16 µM

**Q.** And the IC50 (HOS)?
**A.** 2 µM

**Q.** What about the IC50 (HPAC) of the same molecule?
**A.** 9 µM

**Q.** What about the IC50 [3] of the same molecule?
**A.** 75 µM

**Q.** What about the IC50 (SAOS-2) of the same molecule?
**A.** 5.8 µM

**Q.** What about the IC50 (A549) of the same molecule?
**A.** 72 µM

**Q.** What about the IC50 (A498) of the same molecule?
**A.** 3.1 µM

**Q.** And the IC50 [4]?
**A.** 3 µM

**Q.** And the IC50 [5]?
**A.** 2.4 µM

**Q.** And the IC50 [6]?
**A.** 3.2 µM

**Q.** And the IC50 (PANC-1)?
**A.** 29 µM

**Q.** What about the IC50 (OST) of the same molecule?
**A.** 7.1 µM

**Q.** What about the IC50 [8] of the same molecule?
**A.** 11 µM

**Q.** And the IC50 (U2OS)?
**A.** 22 µM

**Q.** What about the IC50 [9] of the same molecule?
**A.** 6.9 µM

**Q.** What does the source list for `O=C(CCN1CCCC1)Nc1cccc(-n2cc(-c3ccc4ccc(-c5cn(-c6cccc(NC(=O)CCN7CCCC7)c6)nn5)cc4c3)nn2)c1`?
**A.** IC50 (WI-38): 18 µM; IC50 (MCF7): 30 µM; IC50 (MIA PaCa-2): 11 µM; IC50 (HOS-TE85): 2.9 µM; IC50 (PC-3): 9.4 µM; IC50 (MG-63): > 100 µM; IC50 (HOS): 7.1 µM; IC50 (HPAC): 8 µM; IC50 [3]: 8.9 µM; IC50 (SAOS-2): 2.7 µM; IC50 (A549): 76 µM; IC50 (A498): 7.5 µM; IC50 [4]: 1.9 µM; IC50 [5]: 6.8 µM; IC50 [6]: 4.2 µM; IC50 (PANC-1): 7.1 µM; IC50 (OST): 2.2 µM; IC50 [8]: 2.5 µM; IC50 (U2OS): 13 µM; IC50 [9]: 5.85 µM

**Q.** What does the source list for `CCN(CC)CCC(=O)Nc1ccc(-n2cc(-c3ccc4ccc(-c5cn(-c6ccc(NC(=O)CCN(CC)CC)cc6)nn5)cc4c3)nn2)cc1`?
**A.** IC50 (WI-38): 7.4 µM; IC50 (MCF7): 9.2 µM; IC50 (MIA PaCa-2): 12.5 µM; IC50 (HOS-TE85): 2.8 µM; IC50 (PC-3): 8.2 µM; IC50 (MG-63): 7 µM; IC50 (HOS): 5.2 µM; IC50 (HPAC): 6.9 µM; IC50 [3]: 7.5 µM; IC50 (SAOS-2): 2.5 µM; IC50 (A549): 7.6 µM; IC50 (A498): 6.9 µM; IC50 [4]: 2.1 µM; IC50 [5]: 2.4 µM; IC50 [6]: 1.9 µM; IC50 (PANC-1): 8 µM; IC50 (OST): 1.9 µM; IC50 [8]: 2.2 µM; IC50 (U2OS): 5.1 µM; IC50 [9]: 5.6 µM
